Measurements: patent US8389526B2, “3-heteroarylmethyl-imidazo[1,2-b]pyridazin-6-yl derivatives” (Novartis AG, priority 2009, dated 2013)
pIC50: −log10 of the molar value.

Legend:
[1] = molecular target: T1, c-Met receptor tyrosine kinase, GST-c-Met(969-1390) (Homo sapiens, UniProt P08581); experiment: EPK c-Met profiling assay (LanthaScreen TR-FRET kinase assay); assay type: biochemical; settings: 2 μM ATP, 0.3 nM enzyme, 60 minutes at room temperature
T1 construct: made in house
Procedure: A number of compounds of the present invention were assayed in an antibody based kinase phosphorylation assay as follows.
Epk c-Met Profiling Assay:
The EPK kinase assay for c-Met receptor tyrosine kinase was developed, using the purified recombinant GST-fusion protein, containing the cytoplasmic domain of the enzyme. GST-c-Met(969-1390) was purified by affinity chromatography.
The kinase assay is based on the LanthaScreen™ technology. LanthaScreen™ is the detection of Time-Resolved Fluorescence Resonance Energy Transfer (TR-FRET) using lanthanide chelates to measure interactions between various binding partners. In a TR-FRET kinase assay, a long-lifetime lanthanide donor species is conjugated to an antibody that specifically binds to a phosphorylated product of a kinase reaction that is labeled with a suitable acceptor fluorophore. This antibody-mediated interaction brings the lanthanide donor and the acceptor into proximity such that resonance energy transfer can take place, resulting in a detectible increase in the FRET signal.
The kinase reactions were performed in 384 well microtiter plates in a total reaction volume of 9.05 μL. The assay plates were prepared with 0.05 μL per well of test compound in the appropriate test concentration, as described under “preparation of compound dilutions”. The reactions were started by combining 4.5 μL of ATP solution with 4.5 μL of enzyme-substrate mix (consisting of kinase and substrate). The final concentrations in the kinase reactions were 35 mM Tris/HCl, 1 mM DTT, 0.025% Tween20, 10 μM sodium orthovanadate, 0.25% BSA, 0.6% DMSO, 10 mM MgCl2, 3 mM MnCl2, 2 μM ATP, 50 nM Fluorescein-PolyEAY, and 0.3 nM enzyme.
The reactions were incubated for 60 minutes at room temperature and stopped by adding 4.5 μL of stop buffer (50 mM EDTA, 0.04% NP40, 20 mM Tris/HCl).
Subsequently 4.5 μL of detection mix (50 mM Tris/HCl, 2 mM DTT, 0.05% Tween20, 20 μM sodium orthovanadate, 1% BSA, 1.72 μg/mL Tb-PY20 antibody) were added to the stopped reactions. After 30 minutes incubation at room temperature, the plates were measured in a BMG Pherastar fluorescence reader. The effect of compound on the enzymatic activity was in all assays obtained from the linear progress curves and determined from one reading (end point measurement).
Preparation of Compound Dilutions
Test compounds were dissolved in DMSO (10 mM) and transferred into 1.4 mL flat bottom or V-shaped Matrix tubes carrying a unique 2D matrix. The stock solutions were stored at −20° C. if not used immediately. For the test procedure the vials were defrosted and identified by a scanner whereby a working sheet was generated that guided the subsequent working steps.
Compound dilutions were made in 96 well plates. This format enabled the assay of maximally 40 individual test compounds at 8 concentrations (single points) including 4 reference compounds. The dilution protocol included the production of “pre-dilution plates”, “master plates” and “assay plates”.
Pre-dilution plates: 96 polypropylene well plates were used as pre-dilution plates. A total of 4 pre-dilution plates were prepared including 10 test compounds each on the plate positions A1-A10, one standard compound at A11 and one DMSO control at A12. All dilution steps were done on a HamiltonSTAR robot.
Master plates: 100 μL of individual compound dilutions including standard compound and controls of the 4 “pre-dilution plates” were transferred into a 384 “master plate” including the following concentrations 1′820, 564, 182, 54.6, 18.2, 5.46, 1.82 and 0.546 μM, respectively in 90% of DMSO.
Assay plates: Identical “assay plates” were then prepared by pipetting 50 nL each of compound dilutions of the “master plates” into 384-well “assay plates” by means of a HummingBird 384-channel dispenser. These plates were used directly for the assay which was performed in a total volume of 9.05 μL. […]

[2] = system: MET-amplified gastric cancer cell line GTL-16; experiment: GTL-16 proliferation assay (MTS); assay type: cell-based; settings: Homo sapiens, GTL-16 cells, 72 h incubation
Procedure: (§1) C-Met Dependent Cellular Assays
(§2) A number of compounds of the present invention were assayed in a c-Met dependent proliferation and phosphorylation assay as follows.
GTL-16 proliferation assay: the MET-amplified gastric cancer cell line GTL-16 was grown under standard cell culture conditions in DMEM [Dulbecco's Modified Eagle Medium] (high glucose) supplemented with 10% heat-inactivated fetal calf serum and 2 mM L-glutamine. For proliferation assays, cells were seeded at 3000 per well in 96-well-plates. 24 h later, a 10-point dilution series of each compound (3-fold steps, ranging from […]) was prepared in DMSO. Compound were then diluted 1000-fold in growth media in two steps and added to cells in triplicates, resulting in a final volume of […] per well and maximal final compound concentrations of […]. A DMSO-only control was included. Cells were incubated for 72 h and the amount of viable cells was then measured by adding […] of MTS reagent (CellTiter 96® AQueous Non-Radioactive Cell Proliferation Assay, Promega), further incubation for 30′, and reading the optical density at 490 nm.

[3] = molecular target: T2, c-Met (Homo sapiens, UniProt P08581); experiment: GTL-16 c-Met autophosphorylation measured by AlphaScreen detection; assay type: cell-based; settings: GTL-16 cells, 1 h incubation, AlphaScreen p-c-Met; read-out: GTL-16 IC50 c-Met phosphorylation
T2 construct: adapted to measure the phosphorylation of endogenous cellular proteins in cell lysates; endogenous in cells; host or cells: GTL-16
T2 sequence (P08581 25-1390): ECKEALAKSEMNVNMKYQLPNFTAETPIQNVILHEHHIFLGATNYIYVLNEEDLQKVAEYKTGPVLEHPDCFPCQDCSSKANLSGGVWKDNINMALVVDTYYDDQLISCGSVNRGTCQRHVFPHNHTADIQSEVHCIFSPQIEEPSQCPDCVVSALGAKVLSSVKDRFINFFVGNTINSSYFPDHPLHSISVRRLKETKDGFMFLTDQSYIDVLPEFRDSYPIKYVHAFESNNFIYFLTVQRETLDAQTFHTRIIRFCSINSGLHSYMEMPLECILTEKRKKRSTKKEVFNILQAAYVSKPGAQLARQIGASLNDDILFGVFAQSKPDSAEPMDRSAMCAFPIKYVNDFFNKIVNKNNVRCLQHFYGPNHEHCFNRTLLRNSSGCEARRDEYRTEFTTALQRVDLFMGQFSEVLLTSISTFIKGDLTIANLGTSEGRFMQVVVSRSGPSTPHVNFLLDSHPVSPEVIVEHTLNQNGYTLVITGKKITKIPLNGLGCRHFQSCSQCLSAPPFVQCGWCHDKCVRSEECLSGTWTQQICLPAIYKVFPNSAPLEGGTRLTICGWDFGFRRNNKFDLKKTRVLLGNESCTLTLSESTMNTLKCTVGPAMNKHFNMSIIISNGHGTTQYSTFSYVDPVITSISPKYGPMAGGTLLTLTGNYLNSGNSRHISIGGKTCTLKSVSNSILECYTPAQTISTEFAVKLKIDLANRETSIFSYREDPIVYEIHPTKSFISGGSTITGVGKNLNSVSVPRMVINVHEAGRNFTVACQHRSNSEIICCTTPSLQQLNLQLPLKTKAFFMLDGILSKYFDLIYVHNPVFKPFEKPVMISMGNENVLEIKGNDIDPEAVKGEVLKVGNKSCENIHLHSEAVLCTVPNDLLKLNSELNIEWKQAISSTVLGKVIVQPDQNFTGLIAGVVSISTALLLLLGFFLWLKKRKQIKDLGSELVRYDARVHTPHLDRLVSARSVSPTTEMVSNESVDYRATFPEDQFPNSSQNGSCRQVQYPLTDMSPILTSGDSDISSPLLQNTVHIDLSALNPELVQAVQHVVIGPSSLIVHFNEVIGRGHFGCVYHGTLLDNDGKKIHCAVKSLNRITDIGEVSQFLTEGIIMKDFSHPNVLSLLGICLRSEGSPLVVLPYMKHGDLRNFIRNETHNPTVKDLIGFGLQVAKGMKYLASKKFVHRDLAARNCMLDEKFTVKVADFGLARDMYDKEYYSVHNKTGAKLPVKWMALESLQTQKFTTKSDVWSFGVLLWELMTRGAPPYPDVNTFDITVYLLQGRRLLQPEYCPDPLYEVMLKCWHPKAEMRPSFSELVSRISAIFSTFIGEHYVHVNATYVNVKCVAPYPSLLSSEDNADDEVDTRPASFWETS
Procedure: as §1, §2
GTL-16 c-Met autophosphorylation measured by AlphaScreen® detection: the human MET-amplified gastric cancer cells GTL-16 were plated in 384-well plates at a density of 10′000 cells in 20 ul complete growth medium (DMEM high glucose supplemented with 10% (v/v) heat inactivated fetal calf serum and of 1 mM sodium pyruvate) and were incubated at […]/5% CO2/95% humidity for 20 h. The cells were washed and the 30 ul assay buffer (DMEM high glucose, 1 mM sodium pyruvate, 0.1% bovine serum albumine) was added. Compounds were diluted in 384-well compound plates to obtain 8-point serial dilutions for 40 test compounds in 90% DMSO, as well as a reference compound plus 16 high- and 16 low (inhibited) controls. These compound plates were prediluted 1:200 in assay buffer into a compound predilution plate and 10 ul of prediluted compound solution were transferred to the cell plate using a 384-well pipettor, resulting in a final DMSO concentration of 0.11%. Cells were incubated for 1 h at […]/5% CO2/95% humidity. The supernatant was removed, the cells were lysed in 25 ul of RIPA [radio immuno precipitation assay] lysis buffer supplemented with 2 mM sodium vanadate and a protease inhibitor cocktail, and cell plates were stored at −80° C.
For detection of p-c-Met, an AlphaScreen®-based assay was used. AlphaScreen® (Amplified Luminescent Proximity Homogeneous Assay, ALPHA, Perkin Elmer, U.S.A) is a non-radioactive bead-based proximity assay technology to study biomolecular interactions in a homogenous microtiter plate format. This technique has been adapted to measure the phosphorylation of endogenous cellular proteins in cell lysates by the use of specific antibody pairs against the total protein and a phospho-specific epitope. 5 ul of cell lysate was transferred to 384-well low volume Proxiplates for detection using a 384-well pipettor. First, 5 ul of a premix of an anti-c-Met antibody (0.25 ug/ml f.c.), a biotinylated PY20 antibody (phosphotyrosine antibody, 0.05 ug/ml f.c.) and AlphaScreen® Protein A-coupled acceptor beads (10 ug/ml f.c.) in RIPA buffer supplemented with 0.25% (v/w) TOP BLOCK, 2 mM sodium vanadate, and a protease inhibitor cocktail and was added, the plate was sealed, and incubated on a plate shaker for 2 hours at room temperature. Second, 2 ul of dilution buffer containing AlphaScreen® Streptavidin-coated donor beads (10 ug/ml f.c.) in RIPA buffer was added, and the plate was incubated on plate shaker as above for a further 2 hours. The plate was read on an AlphaScreen® compatible plate reader, using standard AlphaScreen® settings.

T1 sequence (P08581 969-1390): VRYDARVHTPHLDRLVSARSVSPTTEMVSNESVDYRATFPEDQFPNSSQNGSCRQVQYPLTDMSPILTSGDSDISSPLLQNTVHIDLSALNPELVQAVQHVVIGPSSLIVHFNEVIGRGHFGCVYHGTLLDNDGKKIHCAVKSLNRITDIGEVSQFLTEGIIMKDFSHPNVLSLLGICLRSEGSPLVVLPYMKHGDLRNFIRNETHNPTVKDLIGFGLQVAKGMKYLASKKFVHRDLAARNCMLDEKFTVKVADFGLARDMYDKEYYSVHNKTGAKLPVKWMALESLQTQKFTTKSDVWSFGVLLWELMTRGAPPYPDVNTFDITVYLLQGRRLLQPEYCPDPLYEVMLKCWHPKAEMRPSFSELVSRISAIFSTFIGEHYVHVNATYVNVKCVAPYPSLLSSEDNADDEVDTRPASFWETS

| Structure (SMILES) | pIC50 [1] | pIC50 [2] | pIC50 [3] |
| --- | --- | --- | --- |
| CC(c1c(F)cc2c(cnn2C(C)C)c1F)c1cnc2ccc(N3CCN(C)C(=O)C3)nn12 (racemic) [Example 56, (rac)-4-(3-(1-(4,6-difluoro-1-isopropyl-1H-indazol-5-yl)ethyl)imidazo[1,2-b]pyridazin-6-yl)-1-methylpiperazin-2-one] | 7.57 | 7.31 | 8.15 |
| CC(c1c(F)cc2c(cnn2C(C)C)c1F)c1cnc2ccc(N3CCNC(=O)C3)nn12 (racemic) [Example 57, (rac)-4-(3-(1-(4,6-difluoro-1-isopropyl-1H-indazol-5-yl)ethyl)imidazo[1,2-b]pyridazin-6-yl)piperazin-2-one] | 7.77 | 7.44 | 8.05 |
| CC(c1c(F)cc2c(cnn2C)c1F)c1cnc2ccc(N3CCN(C)C(=O)C3)nn12 (racemic) [Example 49, (rac)-4-(3-(1-(4,6-difluoro-1-methyl-1H-indazol-5-yl)ethyl)imidazo[1,2-b]pyridazin-6-yl)-1-methylpiperazin-2-one] | 7.80 | 7.54 | 8.19 |
| C[C@@H](c1c(F)cc2c(cnn2C)c1F)c1cnc2ccc(N3CCNC(=O)C3)nn12 [Example 52, 4-{3-[(S)-1-(4,6-Difluoro-1-methyl-1H-indazol-5-yl)-ethyl]-imidazo[1,2-b]pyridazin-6-yl}-piperazin-2-one] | > 8.52 | 7.96 | 8.66 |
| CC1CN(c2ccc3ncc(C(C)c4c(F)cc5ncccc5c4F)n3n2)CC(=O)N1 (racemic) [Example 24, (rac)-4-{3-[1-(5,7-Difluoro-quinolin-6-yl)-ethyl]-imidazo[1,2-b]pyridazin-6-yl}-6-methylpiperazin-2-one] | 8.40 | 8.01 | 8.40 |
| CC(c1cc2cnn(C)c2cc1F)c1cnc2ccc(N3CCNC(=O)C3)nn12 (racemic) [Example 27, (rac)-4-{3-[1-(6-Fluoro-1-methyl-1H-indazol-5-yl)-ethyl]-imidazo[1,2-b]pyridazin-6-yl}-piperazin-2-one] | 7.14 | 6.76 | 8.52 |
| O=C1CN(c2ccc3ncc(Cc4ccc5ncccc5c4F)n3n2)CCN1 [Example 44, 4-[3-(5-Fluoro-quinolin-6-ylmethyl)-imidazo[1,2-b]pyridazin-6-yl]-piperazin-2-one] | 7.85 | 6.88 | 7.51 |
| C[C@@H](c1c(F)cc2ncccc2c1F)c1cnc2ccc(N3CCNC(=O)[C@@H]3C)nn12 [Example 60, (S)-4-{3-[(S)-1-(5,7-Difluoro-quinolin-6-yl)-ethyl]-imidazo[1,2-b]pyridazin-6-yl}-3-methyl-piperazin-2-one] | 8.59 | 8.32 | 8.64 |
| C[C@@H](c1c(F)cc2ncccc2c1F)c1cnc2ccc(N3CCN(C=O)CC3)nn12 [Example 13, 4-{3-[(S)-1-(5,7-Difluoro-quinolin-6-yl)-ethyl]-imidazo[1,2-b]pyridazin-6-yl}-piperazine-1-carbaldehyde] | > 8.52 | 8.04 | 8.60 |
| CC(=O)N1CCN(c2ccc3ncc(C(C)c4cc5cccnc5cc4F)n3n2)CC1 (racemic) [Example 42, (rac)-1-(4-{3-[1-(7-Fluoro-quinolin-6-yl)-ethyl]-imidazo[1,2-b]pyridazin-6-yl}-piperazin-1-yl)ethanone] | 7.31 | 6.71 | 7.41 |
| CC(c1c(F)cc2ncccc2c1F)c1cnc2ccc(N3CCN(C)C(=O)C3C)nn12 (racemic) [Example 21, (rac)-4-{3-[1-(5,7-Difluoro-quinolin-6-yl)-ethyl]-imidazo[1,2-b]pyridazin-6-yl}-1,3-dimethylpiperazin-2-one] | 7.72 | 8.05 | > 8.52 |
| O=CN1CCN(c2ccc3ncc(Cc4c(F)cc5ncccc5c4F)n3n2)CC1 [Example 35, 4-[3-(5,7-Difluoro-quinolin-6-ylmethyl)-imidazo[1,2-b]pyridazin-6-yl]-piperazine-1-carbaldehyde] | 8.00 | 7.35 | 8.10 |
| CC(c1c(F)cc2c(cnn2C)c1F)c1cnc2ccc(N3CCNC(=O)C3)nn12 (racemic) [Example 51] | 7.66 | 7.80 | 8.10 |
| C[C@@H](c1cc2cnn(C)c2cc1F)c1cnc2ccc(N3CCN(C)C(=O)C3)nn12 [Example 26, 4-{3-[(S)-1-(6-Fluoro-1-methyl-1H-indazol-5-yl)-ethyl]-imidazo[1,2-b]pyridazin-6-yl}-1-methyl-piperazin-2-one] | 7.59 | 7.18 | 8.00 |
